Measured values taken from patent US20110319338A1, “PEPTIDES THAT BIND EUKARYOTIC TRANSLATION INITIATION FACTOR 4E” (The Board of Regents of the University of Texas System, priority 2008, published 2011).
Read-outs that look alike come from different tables or passages of the source.

Assays:
ES-2-DualLuc cells = assay: Cell-based translation assay with bicistronic R-Luc/F-Luc reporter
Method: (§1) FIGS. 2A-2F. Inhibition of cap-dependent translation and cell growth by TAT-4EBP fusion peptides. (FIG. 2A) Representation of the pIRES-DualLuc bicistronic construct containing Renilla Luciferase (R-Luc) and firefly luciferase (F-Luc) genes. In (FIG. 2B), R-Luc and F-Luc activities were assayed in ES-2-DualLuc cells following treatment for 24 hours with rapamycin and for 3 hours with cycloheximide with the indicated concentrations of these drugs, and expressed relative to the respective luciferase activities in cells incubated without drug. Cell viability was not affected by rapamycin and cycloheximide under these conditions. In (FIG. 2C), R-Luc and F-Luc activities were assayed in ES-2-DualLuc cells following treatment for 6 hours with the indicated concentrations of peptides, and expressed relative to the respective luciferase activities in cells incubated without peptide. Shown are results of triplicate assays performed independently two times, and the statistical significance of differences in relative R-Luc and F-Luc activities in cells treated with peptide at a concentration of 10 micromoles per liter. (FIG. 2D) Viability of OVCAR-3 cells at 3 days after addition of the indicated concentrations of peptides, expressed relative to viability of cells incubated without peptide. Shown are results of triplicate assays performed in two independent experiments, and statistical significances of differences in viability of cells treated with TAT-4EBP1-WT vs. TAT-4EBP1-MT, and of cells treated with TAT-4EBP2-WT vs. TAT-4EBP2-MT at a concentration of 10 micromoles per liter. (FIG. 2E) OVCAR-3 cells at 3 days after peptide addition (10 micromoles per liter) viewed under phase-contrast microscopy. (FIG. 2F) Flow cytometric analysis of staining of terminal deoxynucleotidyl transferase-mediated dUTP nick end labeling (TUNEL) in OVCAR-3 cells at 3 days after peptide addition (10 micromoles per liter). Cells incubated for 3 days in the absence of peptide in medium with and without serum are included as controls.
(§2) FIGS. 3A-3H. Uptake, binding and inhibitory effects of [DLys6]GnRH-4EBP fusion peptides. (FIG. 3A) Sequences of [DLys6]GnRH, and wild-type and mutant 4EBP1 peptides fused to the agonist. (FIG. 3B) Western blot of GnRH-RI levels in OVCAR-3, ES-2, MDA-MB-231, BJ, HUVEC and SKOV3 cells. (FIG. 3C) Detection of biotinylated peptides in OVCAR-3 and SKOV3 by Texas Red-conjugated streptavidin at 16 hours after peptide addition (3 micromoles per liter). In (FIGS. 3D and 3E), biotinylated peptides were incubated with OVCAR-3 cell lysate as described in FIG. 1. In (FIG. 3D), peptide was pulled down using streptavidin-agarose. Precipitates (P) and supernatants (S) were analyzed by Western blot using eIF4E antibody. In (FIG. 3E), immunoprecipitation was performed using eIF4E antibody, and Western blot performed using eIF4G antibody. (FIG. 3F) R-Luc and F-Luc activities were assayed in ES-2-DualLuc cells at 6 hours after addition of the indicated concentrations of peptides, and are expressed relative to the respective luciferase activities in cells incubated without peptide. Shown are results of triplicate assays performed independently two times, and the statistical significance of differences in relative R-Luc and F-Luc activities in cells treated with peptide at a concentration of 10 micromoles per liter (FIG. 3G) Cells of GnRH-RI-positive and -negative lines were treated with the indicated concentrations of peptides. Viability at 3 days after peptide addition is expressed relative to viability of cells incubated with no peptide. Shown are results of triplicate assays performed in two independent experiments, and statistical significances of differences in viability of cells treated with wild-type vs. mutant [DLys6]GnRH-4EBP1 peptides at a concentration of 10 micromoles per liter. (FIG. 3H) ES-2 and parental SKOV3 cells at 3 days after peptide addition (30 micromoles per liter) viewed under phase-contrast microscopy. […]

eIF4E = target: T1, eIF4E (Homo sapiens, UniProt P06730); assay: Streptavidin-agarose pull-down of biotinylated peptide from OVCAR-3 cell lysate, Western blot with eIF4E antibody; format: binding; settings: biotinylated peptide 3 micromoles per liter, 250 micrograms OVCAR-3 cell lysate
T1 construct: endogenous in cells; host or cells: OVCAR-3 cell lysate
Method: (§3) FIGS. 1A-1G. 4EBP peptides bind eIF4E and inhibit binding of eIF4E to eIF4G. (FIG. 1A) Sequences of peptides comprising residues 49 to 68 of 4EBP1 and 4EBP2. (FIG. 1B) Biotinylated peptides (3 micromoles per liter) were incubated with 250 micrograms of OVCAR-3 cell lysate. Peptides were pulled-down using streptavidin-agarose. Precipitates (P) and supernatants (S) were analyzed by Western blot using eIF4E antibody. In (FIG. 1C), immunoprecipitation was performed using eIF4E antibody, and Western blot performed using eIF4G antibody. (FIG. 1D) Sequences of wild-type and mutant 4EBP peptides fused to TAT (mutant residues are highlighted). (FIG. 1E) OVCAR-3 cells were treated with biotinylated peptides (3 micromoles per liter, final concentration) for 16 hours. Internalized peptides were detected by staining fixed cells with Texas Red-conjugated streptavidin. Nuclei were visualized by staining with 4′,6-Diamidino-2-Phenylindole (DAPI). (FIGS. 1F and 1G) OVCAR-3 cell lysates were incubated with peptides as described for FIG. 1B. In (FIG. 1F), immunoprecipitation was performed using streptavidin-agarose and Western blot performed using eIF4E antibody. In (FIG. 1G), immunoprecipitation was performed using eIF4E antibody, and Western blot performed using eIF4G antibody.
as §2, with “peptides.” for “peptides. Viability at 3 days after peptide addition is expressed relative to viability of cells incubated with no peptide. Shown are results of triplicate assays performed in two independent experiments, and statistical significances of differences in viability of cells treated with wild-type vs. mutant [DLys6]GnRH-4EBP1 peptides at a concentration of 10 micromoles per liter. (FIG. 3H) ES-2 and parental SKOV3 cells at 3 days after peptide addition (30 micromoles per liter) viewed under phase-contrast microscopy.”

[1] = target: T2, binding of eIF4E to eIF4G (Homo sapiens, UniProt P06730); assay: Immunoprecipitation with eIF4E antibody and Western blot with eIF4G antibody, OVCAR-3 cell lysate incubated with peptide; settings: peptide 3 micromoles per liter, 250 micrograms OVCAR-3 cell lysate
T2 construct: endogenous in cells; host or cells: OVCAR-3 cell lysate
Method: as §3
as §2, with “peptides.” for “peptides. Viability at 3 days after peptide addition is expressed relative to viability of cells incubated with no peptide. Shown are results of triplicate assays performed in two independent experiments, and statistical significances of differences in viability of cells treated with wild-type vs. mutant [DLys6]GnRH-4EBP1 peptides at a concentration of 10 micromoles per liter. (FIG. 3H) ES-2 and parental SKOV3 cells at 3 days after peptide addition (30 micromoles per liter) viewed under phase-contrast microscopy.”

OVCAR-3 cells = assay: Cell viability assay (crystal violet); format: cell-based; settings: OVCAR-3, 3 days after peptide addition, 0.3 to 30 micromoles per liter
Method: as §1, with “Shown are results of triplicate assays performed in two independent experiments, and statistical significances of differences in viability of cells treated with TAT-4EBP1-WT vs. TAT-4EBP1-MT, and of cells treated with TAT-4EBP2-WT vs. TAT-4EBP2-MT at a concentration of 10 micromoles per liter. (FIG. 2E) OVCAR-3 cells at 3 days after peptide addition (10 micromoles per liter) viewed under phase-contrast microscopy. (FIG. 2F) Flow cytometric analysis of staining of terminal deoxynucleotidyl transferase-mediated dUTP nick end labeling (TUNEL) in OVCAR-3 cells at 3 days after peptide addition (10 micromoles per liter). Cells incubated for 3 days in the absence of peptide in medium with and without serum are included as controls.” left out
FIGS. 3A-3H. […] Precipitates (P) and supernatants (S) were analyzed by Western blot using eIF4E antibody. […]

[2] = rapamycin 24 hours, cycloheximide 3 hours

T2 sequence (P06730 2-217 limits assumed): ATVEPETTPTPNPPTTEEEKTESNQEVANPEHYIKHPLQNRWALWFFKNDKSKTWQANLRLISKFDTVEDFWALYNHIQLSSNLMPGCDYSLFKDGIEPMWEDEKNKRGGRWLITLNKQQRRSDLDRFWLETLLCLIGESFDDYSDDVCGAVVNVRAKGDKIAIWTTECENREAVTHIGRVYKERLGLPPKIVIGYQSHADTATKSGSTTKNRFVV
T1 sequence (P06730 whole entry): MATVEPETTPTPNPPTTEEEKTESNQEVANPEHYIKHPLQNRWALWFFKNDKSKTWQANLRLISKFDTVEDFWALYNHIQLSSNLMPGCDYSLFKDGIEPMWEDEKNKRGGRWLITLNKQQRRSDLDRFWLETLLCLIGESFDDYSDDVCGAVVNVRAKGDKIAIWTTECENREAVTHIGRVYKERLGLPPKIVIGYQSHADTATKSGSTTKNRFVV

| Compound | binding of peptide to eIF4E (eIF4E) | inhibition of eIF4E binding to eIF4G [1] | also measured |
| --- | --- | --- | --- |
| C[C@@H]1C[C@@H]([C@H](O)CC2CC(=O)NC(=O)C2)C(=O)[C@@H](C)C1 [cycloheximide] |  |  | cap-dependent translation (R-Luc read-out) (ES-2-DualLuc cells; [2]): inhibited both cap-dependent and independent translation; cap-independent translation (F-Luc readout) (ES-2-DualLuc cells; [2]): inhibited both cap-dependent and independent translation; cell viability under translation assay conditions (ES-2-DualLuc cells; [2]): not affected |
| 4EBP2-WT: peptide containing the region of 4EBP2 corresponding to residues 49-68 of 4EBP1 (GTRIIYDRKFLLDRRNSPMA) | bound to eIF4E | inhibited eIF4E from binding eIF4G |  |
| TAT-4EBP2-WT: wild-type 4EBP2 residues fused to cell-penetrating residues of HIV TAT protein (YGRKKRRQRRRGTRIIYDRKFLLDRRNSPMA) |  |  | cap-dependent translation (R-Luc read-out) (ES-2-DualLuc cells; peptide 6 hours, 0.3 to 10 micromoles per liter, relative to cells without peptide): also inhibited cap-dependent translation, but was slightly less effective than TAT-4EBP1-WT; cell viability / growth (OVCAR-3 cells): decreased cell viability in a dose-dependent manner |
| CO[C@H]1C[C@@H]2CC[C@@H](C)[C@@](O)(O2)C(=O)C(=O)N2CCCC[C@H]2C(=O)O[C@H]([C@H](C)C[C@@H]2CC[C@@H](O)[C@H](OC)C2)CC(=O)[C@H](C)/C=C(\C)[C@@H](O)[C@@H](OC)C(=O)[C@H](C)C[C@H](C)/C=C/C=C/C=C/1C [rapamycin] |  |  | cell viability under translation assay conditions (ES-2-DualLuc cells): not affected |

More lines, main results first:

| binding of peptide to eIF4E (eIF4E) | inhibition of eIF4E binding to eIF4G [1] | Compound | also measured |
| --- | --- | --- | --- |
| substantially impaired | substantially impaired | TAT-4EBP1-MT: TAT-4EBP1 fusion peptide in which Tyr-54, Arg-56 and Leu-59 were substituted by Gly (YGRKKRRQRRRGTRIIGDGKFGMECRNSPVT) |  |
| substantially impaired | substantially impaired | TAT-4EBP2-MT: TAT-4EBP2 fusion peptide in which Tyr-54, Arg-56 and Leu-59 were substituted by Gly (YGRKKRRQRRRGTRIIGDGKFGLDRRNSPMA) |  |
